In patent US20240116985A1, “STAPLED PEPTIDES AND METHODS THEREOF” (priority 2020, published 2024):

Each compound was assayed against T1, full-length beta-Catenin (Uniprot ID P35222) (Homo sapiens, UniProt P35222) (assay: Fluorescence polarization IC50 (beta-catenin / 5FAM-TCF4 10-53 competition)). Conditions: fluorescence polarization; read-out: beta-Catenin FP IC50.
T1 construct: 10 nM full-length beta-Catenin (Uniprot ID P35222)
T1 sequence (P35222 1-781): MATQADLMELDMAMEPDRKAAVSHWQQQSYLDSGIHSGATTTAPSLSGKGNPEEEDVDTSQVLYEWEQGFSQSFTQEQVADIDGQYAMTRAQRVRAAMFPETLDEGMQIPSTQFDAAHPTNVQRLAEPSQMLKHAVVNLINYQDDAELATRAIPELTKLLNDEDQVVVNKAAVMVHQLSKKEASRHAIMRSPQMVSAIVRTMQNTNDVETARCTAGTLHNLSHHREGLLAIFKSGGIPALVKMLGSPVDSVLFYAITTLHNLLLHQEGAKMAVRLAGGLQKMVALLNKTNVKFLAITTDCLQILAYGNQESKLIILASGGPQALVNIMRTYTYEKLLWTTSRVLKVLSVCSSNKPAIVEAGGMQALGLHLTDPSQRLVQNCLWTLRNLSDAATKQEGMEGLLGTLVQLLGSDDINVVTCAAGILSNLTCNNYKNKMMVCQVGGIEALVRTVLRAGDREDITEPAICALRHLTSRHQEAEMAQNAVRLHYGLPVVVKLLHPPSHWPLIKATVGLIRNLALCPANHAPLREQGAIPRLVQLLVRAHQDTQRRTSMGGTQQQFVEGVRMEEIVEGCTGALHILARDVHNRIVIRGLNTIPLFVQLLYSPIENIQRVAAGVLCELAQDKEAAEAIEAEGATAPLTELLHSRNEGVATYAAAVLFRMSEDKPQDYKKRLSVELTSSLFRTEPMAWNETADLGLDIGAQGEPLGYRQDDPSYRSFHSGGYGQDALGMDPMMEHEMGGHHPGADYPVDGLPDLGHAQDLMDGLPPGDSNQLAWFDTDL
Format: binding

SMILES | IC50 [nM]
CC(=O)N1CCC[C@]12CC=CCCCC1(CCCC=CCCCOC(=O)N3CC[C@@](C(=O)N[C@@H](Cc4ccsc4)C(=O)N[C@@H](Cc4ccc(F)c(F)c4)C(=O)N[C@@H](CCC(N)=O)C(N)=O)(C3)NC(=O)[C@H](CC(C)C)NC(=O)[C@H](Cc3ccccc3)NC(=O)[C@H](C)NC(=O)[C@H](C)NC(=O)[C@H](CC(=O)O)NC(=O)[C@H](CC(=O)O)NC1=O)NC(=O)[C@H](CC(C)(C)C)NC(=O)[C@H](CC(=O)O)NC2=O (stereo partly drawn) [I-1427, Ac-PL3-Asp-Npg-B5-Asp-Asp-Ala-Ala-Phe-Leu-PyrS2-3Thi-34FF-Gln-NH2] | 33
CC(=O)N1CCC[C@]12CC=CCCCC1(CCCC=CCCCOC(=O)N3CC[C@@](C(=O)N[C@@H](Cc4ccsc4)C(=O)N[C@@H](Cc4ccc(F)c(F)c4)C(=O)N[C@@H](CO)C(N)=O)(C3)NC(=O)[C@H](CC(C)C)NC(=O)[C@H](Cc3ccccc3)NC(=O)[C@H](C)NC(=O)[C@H](C)NC(=O)[C@H](CC(=O)O)NC(=O)[C@H](CC(=O)O)NC1=O)NC(=O)[C@H](CC(C)(C)C)NC(=O)[C@H](CC(=O)O)NC2=O (stereo partly drawn) [I-1428, Ac-PL3-Asp-Npg-B5-Asp-Asp-Ala-Ala-Phe-Leu-PyrS2-3Thi-34FF-Ser-NH2] | 41
CC(=O)N1CCC[C@]12CC=CCCCC1(CCCC=CCCCOC(=O)N3CC[C@@](C(=O)N[C@@H](Cc4ccsc4)C(=O)N[C@@H](Cc4cn(C)c5ccccc45)C(=O)N[C@@H](CCC(N)=O)C(N)=O)(C3)NC(=O)[C@H](CC(C)C)NC(=O)[C@H](Cc3ccccc3)NC(=O)[C@H](C)NC(=O)[C@H](C)NC(=O)[C@H](CC(=O)O)NC(=O)[C@H](CC(=O)O)NC1=O)NC(=O)[C@H](CC(C)(C)C)NC(=O)[C@H](CC(=O)O)NC2=O (stereo partly drawn) [I-1433, Ac-PL3-Asp-Npg-B5-Asp-Asp-Ala-Ala-Phe-Leu-PyrS2-3Thi-1MeW-Gln-NH2] | 71
CC(=O)N1CCC[C@]12CC=CCCCC1(CCCC=CCCCOC(=O)N3CC[C@@](C(=O)N[C@@H](Cc4ccsc4)C(=O)N[C@@H](Cc4cn(C)c5ccccc45)C(=O)N[C@@H](CO)C(N)=O)(C3)NC(=O)[C@H](CC(C)C)NC(=O)[C@H](Cc3ccccc3)NC(=O)[C@H](C)NC(=O)[C@H](C)NC(=O)[C@H](CC(=O)O)NC(=O)[C@H](CC(=O)O)NC1=O)NC(=O)[C@H](CC(C)(C)C)NC(=O)[C@H](CC(=O)O)NC2=O (stereo partly drawn) [I-1434, Ac-PL3-Asp-Npg-B5-Asp-Asp-Ala-Ala-Phe-Leu-PyrS2-3Thi-1MeW-Ser-NH2] | 83
CC(=O)N1CCC[C@]12CC=CCCCC1(CCCC=CCCCOC(=O)N3CC[C@@](C(=O)N[C@@H](Cc4ccsc4)C(=O)N[C@@H](Cc4c[nH]c5cc(Cl)ccc45)C(=O)N[C@@H](CCC(N)=O)C(N)=O)(C3)NC(=O)[C@H](CC(C)C)NC(=O)[C@H](Cc3ccccc3)NC(=O)[C@H](C)NC(=O)[C@H](C)NC(=O)[C@H](CC(=O)O)NC(=O)[C@H](CC(=O)O)NC1=O)NC(=O)[C@H](CC(C)(C)C)NC(=O)[C@H](CC(=O)O)NC2=O (stereo partly drawn) [I-1435, Ac-PL3-Asp-Npg-B5-Asp-Asp-Ala-Ala-Phe-Leu-PyrS2-3Thi-6C1W-Gln-NH2] | 90
CC(=O)N1CCC[C@]12CC=CCCCC1(CCCC=CCCCOC(=O)N3CC[C@@](C(=O)N[C@@H](Cc4ccsc4)C(=O)N[C@@H](Cc4c[nH]c5cc(Cl)ccc45)C(=O)N[C@@H](CO)C(N)=O)(C3)NC(=O)[C@H](CC(C)C)NC(=O)[C@H](Cc3ccccc3)NC(=O)[C@H](C)NC(=O)[C@H](C)NC(=O)[C@H](CC(=O)O)NC(=O)[C@H](CC(=O)O)NC1=O)NC(=O)[C@H](CC(C)(C)C)NC(=O)[C@H](CC(=O)O)NC2=O (stereo partly drawn) [I-1436, Ac-PL3-Asp-Npg-B5-Asp-Asp-Ala-Ala-Phe-Leu-PyrS2-3Thi-6C1W-Ser-NH2] | 121
CC(=O)N1CCC[C@]12CC=CCCCC1(CCCC=CCCCOC(=O)N3CC[C@@](C(=O)N[C@@H](Cc4ccsc4)C(=O)N[C@@H](Cc4csc5ccccc45)C(=O)N[C@@H](CCC(N)=O)C(N)=O)(C3)NC(=O)[C@H](CC(C)C)NC(=O)[C@H](Cc3ccccc3)NC(=O)[C@H](C)NC(=O)[C@H](C)NC(=O)[C@H](Cc3ccccc3)NC(=O)[C@H](CC(=O)O)NC1=O)NC(=O)[C@H](CC(C)(C)C)NC(=O)[C@H](CC(=O)O)NC2=O (stereo partly drawn) [I-1441, Ac-PL3-Asp-Npg-B5-Asp-Phe-Ala-Ala-Phe-Leu-PyrS2-3Thi-BztA-Gln-NH2] | 327
CC(=O)N1CCC[C@]12CC=CCCCC1(CCCC=CCCCOC(=O)N3CC[C@@](C(=O)N[C@@H](Cc4ccsc4)C(=O)N[C@@H](Cc4csc5ccccc45)C(=O)N[C@@H](CCC(N)=O)C(N)=O)(C3)NC(=O)[C@H](CC(C)C)NC(=O)[C@H](Cc3ccccc3)NC(=O)[C@H](C)NC(=O)[C@H](C)NC(=O)[C@H](CC(C)C)NC(=O)[C@H](CC(=O)O)NC1=O)NC(=O)[C@H](CC(C)(C)C)NC(=O)[C@H](CC(=O)O)NC2=O (stereo partly drawn) [I-1444, Ac-PL3-Asp-Npg-B5-Asp-Leu-Ala-Ala-Phe-Leu-PyrS2-3Thi-BztA-Gln-NH2] | 6560
